Experimental findings from patent US20250368678A1, “19-NOR-C3,3-DISUBSTITUTED C21-AZACYCLO-S[…] AND METHOD FOR USING SAME” (SHANDONG LUYE PHARMACEUTICAL CO., LTD., priority 2022, published 2025) are described below.

The target of one data set is T1, α1β2γ2 GABA receptors (α1β2γ2-CHO-TRex stable cell strain) (Homo sapiens, UniProt P14867+P47870).
T1 construct: expressed in transfected cells
T1 sequence (P14867 28-456): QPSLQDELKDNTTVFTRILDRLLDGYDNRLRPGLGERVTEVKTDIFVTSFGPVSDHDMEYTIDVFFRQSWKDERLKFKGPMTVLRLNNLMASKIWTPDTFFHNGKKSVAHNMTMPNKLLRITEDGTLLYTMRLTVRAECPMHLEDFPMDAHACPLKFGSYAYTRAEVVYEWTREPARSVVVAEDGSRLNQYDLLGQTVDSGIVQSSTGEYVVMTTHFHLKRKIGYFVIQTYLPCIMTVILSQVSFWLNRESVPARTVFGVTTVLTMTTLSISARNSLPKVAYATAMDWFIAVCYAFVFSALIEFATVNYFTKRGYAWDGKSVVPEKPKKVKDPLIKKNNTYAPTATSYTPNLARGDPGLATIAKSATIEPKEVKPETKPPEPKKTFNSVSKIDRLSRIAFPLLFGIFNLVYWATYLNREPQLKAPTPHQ
T1 sequence (P47870 25-512 limits assumed): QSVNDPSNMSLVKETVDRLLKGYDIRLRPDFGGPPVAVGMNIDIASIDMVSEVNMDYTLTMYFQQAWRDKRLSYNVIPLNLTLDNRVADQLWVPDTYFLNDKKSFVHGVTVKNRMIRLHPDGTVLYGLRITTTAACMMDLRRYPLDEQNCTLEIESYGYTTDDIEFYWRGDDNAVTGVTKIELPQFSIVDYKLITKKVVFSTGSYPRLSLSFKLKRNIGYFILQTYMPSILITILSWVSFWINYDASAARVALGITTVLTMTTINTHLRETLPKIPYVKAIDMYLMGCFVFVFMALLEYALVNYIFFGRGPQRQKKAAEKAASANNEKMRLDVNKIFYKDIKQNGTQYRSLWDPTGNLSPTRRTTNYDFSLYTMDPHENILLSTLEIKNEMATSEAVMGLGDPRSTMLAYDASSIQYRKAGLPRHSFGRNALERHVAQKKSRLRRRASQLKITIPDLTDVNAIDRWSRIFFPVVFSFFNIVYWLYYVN
T1 sequence (P18507 40-475 partner): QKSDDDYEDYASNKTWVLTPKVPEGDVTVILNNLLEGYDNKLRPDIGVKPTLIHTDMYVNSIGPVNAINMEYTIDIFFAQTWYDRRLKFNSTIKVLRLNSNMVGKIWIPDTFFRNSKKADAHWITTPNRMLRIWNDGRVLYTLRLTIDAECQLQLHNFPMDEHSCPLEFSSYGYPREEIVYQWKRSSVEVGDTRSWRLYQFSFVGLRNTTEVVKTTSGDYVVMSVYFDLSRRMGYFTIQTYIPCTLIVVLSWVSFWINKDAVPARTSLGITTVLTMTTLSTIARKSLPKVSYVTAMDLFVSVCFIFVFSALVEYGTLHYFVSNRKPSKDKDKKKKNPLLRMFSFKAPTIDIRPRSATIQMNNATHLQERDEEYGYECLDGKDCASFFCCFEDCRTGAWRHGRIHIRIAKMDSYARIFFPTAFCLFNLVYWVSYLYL
The data set is described as follows: Whole-cell patch clamp, intrasynaptic functional activity (positive allosteric regulation of GABA-induced current). The note with it: patch clamp -60 mV, GABA at EC10-20, α1β2γ2-CHO-TRex cells. Format: cell-based. The protocol:
(§1) The α4β3δ-HEK-FlpIn-TRex stable cell strain was cultured in DMEM+10% FBS complete culture medium, with the selective antibiotics being 10 μg/mL Blasticidin, 100 µg/mL Zeocin, 100 µg/mL Hygromycin, and 0.2 μg/mL Puromycin. The α1β2γ2-CHO-TRex stable cell strain was cultured in DMEM/F12+10% FBS complete culture medium, with the selective antibiotics being 10 μg/mL Blasticidin, 100 μg/mL Zeocin, 300 μg/mL Hygromycin, and […] Puromycin.
(§2) The day before the patch clamp experiment, cells were seeded onto 12 mm polylysine-coated coverslips and then cultured in 35 mm culture dishes, and tetracycline ([…]) was added to induce the expression of GABA receptors. The extracellular fluid had the following composition (in mM): 140 NaCl, 3 KCl, 1.5 MgCl2, 2 CaCl2, 10 HEPES, and 10 Glucose. After thorough mixing, NaOH was added to adjust the pH to 7.4, and sucrose was added to adjust the osmotic pressure to 300-320 mOsm. The fluid was stored at 4° C. The electrode internal solution had the following composition (in mM): 145 KCl, 1 MgCl2, 5 EGTA, 10 HEPES, and 5 MgATP. After thorough mixing, KOH was added to adjust the pH to 7.3, and sucrose was added to adjust the osmotic pressure to 290-300 mOsm. The solution was filtered through a […] before use.
(§3) Whole-cell patch clamp recording was mainly employed in this experiment. The membrane potential was clamped at −60 mV, and receptors were activated using GABA at an EC10-20 concentration ([…]). The test compounds were dissolved in 0.1% DMSO, and perfusion was performed for 30 s prior to GABA stimulation. Finally, the positive allosteric regulating effects of the test compounds on α1β2γ2 or α4β3δ were determined.
(§4) The experimental result for each concentration was expressed as a fold increase in the GABA-induced current caused by the compound. […] At least 5 concentrations are tested to obtain a complete EC50 curve and EC50 values. All experiments were repeated on no less than 3 cells, and data processing was completed using GraphPad prism software. The dose-response curves were fitted using the Hill equation, and the half-maximal activating concentration EC50 and Emax were finally obtained.
(In patch-clamp work, channel activity is measured electrically.)
For orientation: EC50 means the concentration giving half of the maximal effect. Low values mean greater potency, high ones weaker potency. The Emax is the greatest response seen or fitted, relative to the assay's reference. Compound `C[C@@]1(O)CC[C@H]2[C@H](CC[C@@H]3[C@@H]2CC[C@]2(C)[C@@H](C(=O)Cn4cnn(-c5cccc(F)c5)c4=O)CC[C@@H]32)C1` [Compound 1] registered an EC50 of 0.056 µM and an Emax of 566%.

`C[C@@]1(O)CC[C@H]2[C@H](CC[C@@H]3[C@@H]2CC[C@]2(C)[C@@H](C(=O)Cn4cnn(-c5cccnc5)c4=O)CC[C@@H]32)C1` [Compound 2] displayed an Emax of 773%.

`C[C@@]1(O)CC[C@H]2[C@H](CC[C@@H]3[C@@H]2CC[C@]2(C)[C@@H](C(=O)Cn4cnn(-c5ccccc5)c4=O)CC[C@@H]32)C1` [Compound 3] had an EC50 of 0.09 µM and a maximal effect (Emax) of 430%.

Test system in a further data set: not listed separately
In words: In vitro liver microsomal stability assay, human. The note with it: Human liver microsomes. Format: in vitro ADME. The protocol:
(§5) 1) Preparation of working solutions of test samples: The test samples were diluted with acetonitrile to 100 M.
(§6) 2) Preparation of a working solution of liver microsomes: liver microsomes were diluted with 100 mM phosphate-buffered saline to 0.56 mg/mL.
(§7) 3) Preparation of a working solution of reduced nicotinamide adenine dinucleotide (NADPH): A proper amount of NADPH was weighed out and diluted with phosphate-buffered saline to 20 mM, and an equal volume of a 60 mM MgCl2 solution was added.
(§8) 4) Preparation of a stop solution: Tolbutamide was diluted with acetonitrile to 20 ng/mL, serving as a stop solution containing an internal standard.
(§9) 1) Incubation anti-adsorption EP tubes were prepared and labeled with species, test/control sample, time points (0, 5, 10, 20, 30, 60 min, Blank60, and NCF60), etc.
(§10) 2) 2 L of test or control sample working solution, diluted with acetonitrile to 100 M, and 178 L of liver microsome working solution were added to each tube. For the Blank60 tube, 2 L of acetonitrile was added instead of a test sample. The tubes were pre-incubated in a 37° C. water bath for about 10 min, with each sample tested in triplicate.
(§11) 3) After the pre-incubation was complete, 20 L of NADPH working solution was added to each tube except for the 0 min and NCF60 tubes to start reactions, and 20 L of phosphate-buffered saline (containing 30 mM MgCl2) was added to the NCF60 tube. In the incubation system, the final concentrations of the test and control samples were 1 M, the final concentration of liver microsomes was 0.5 mg/mL, the final concentration of NADPH was 1 mM, and the final concentration of MgCl2 was 3 mM.
(§12) 4) For the 0 min sample, 600 L of stop solution was added before adding the NADPH working solution. After each sample was incubated for its respective time, 600 L of stop solution was added to stop the reaction.
(§13) 5) After the reaction was stopped, each sample was vortexed for 30 s and then centrifuged at 13,500 rpm for 10 min. 100 L of the supernatant was transferred to an EP tube, and 100 L Milli-Q water was added. The mixture was well mixed by vortexing and analyzed by LC-MS/MS.
(§14) 6) Testosterone and dextromethorphan were used as positive control samples under the same conditions to assess the stability and reliability of the system.
(§15) Parameters of the test samples, including their half-lives, intrinsic clearance rates in liver microsomes, and hepatic intrinsic clearance rates, were calculated based on the percentage of test sample remaining.
(Liver microsomes are a subcellular fraction often used to study metabolism.)
By CLint scaled is commonly meant the rate of metabolic loss divided by the concentration. The term half-life denotes the time in which the quantity being followed falls by half. A lower half-life goes with fast loss. `C[C@@]1(O)CC[C@H]2[C@H](CC[C@@H]3[C@@H]2CC[C@]2(C)[C@@H](C(=O)Cn4cnn(-c5cccc(F)c5)c4=O)CC[C@@H]32)C1` [Compound 1] returned a CLint scaled at 1 µM of 3.97 mL/min/kg and a half-life at 1 µM of 330 min.

`C[C@@]1(O)CC[C@H]2[C@H](CC[C@@H]3[C@@H]2CC[C@]2(C)[C@@H](C(=O)Cn4cnn(-c5cccnc5)c4=O)CC[C@@H]32)C1` [Compound 2] showed a CLint scaled at 1 µM of 52 mL/min/kg and a T1/2 of 24.1 min.

Consider `C[C@@]1(O)CC[C@H]2[C@H](CC[C@@H]3[C@@H]2CC[C@]2(C)[C@@H](C(=O)Cn4cnn(-c5ccccc5)c4=O)CC[C@@H]32)C1` [Compound 3], for which the CLint scaled at 1 µM was determined as 11 mL/min/kg and the half-life at 1 µM was determined as 118 min.

The same data set, now with this note: Human liver microsomes 0.5 mg/mL, NADPH.
For the compound `C[C@@]1(O)CC[C@H]2[C@H](CC[C@@H]3[C@@H]2CC[C@]2(C)[C@@H](C(=O)Cn4cnn(-c5cccc(F)c5)c4=O)CC[C@@H]32)C1` [Compound 1], the “Remaining amount % at 60 min” value was determined as 89.0%.

Turning to `C[C@@]1(O)CC[C@H]2[C@H](CC[C@@H]3[C@@H]2CC[C@]2(C)[C@@H](C(=O)Cn4cnn(-c5cccnc5)c4=O)CC[C@@H]32)C1` [Compound 2], the “Remaining amount % at 60 min” value is 18.57%.

Regarding `C[C@@]1(O)CC[C@H]2[C@H](CC[C@@H]3[C@@H]2CC[C@]2(C)[C@@H](C(=O)Cn4cnn(-c5ccccc5)c4=O)CC[C@@H]32)C1` [Compound 3], the “Remaining amount % at 60 min” value came to 70.25%.

Staying with this data set, now noted: Human liver microsomes; read-out: CLint(mic).
`C[C@@]1(O)CC[C@H]2[C@H](CC[C@@H]3[C@@H]2CC[C@]2(C)[C@@H](C(=O)Cn4cnn(-c5cccc(F)c5)c4=O)CC[C@@H]32)C1` [Compound 1]: the microsomal CLint at 1 µM amounted to 4.2 µL/min/mg.

`C[C@@]1(O)CC[C@H]2[C@H](CC[C@@H]3[C@@H]2CC[C@]2(C)[C@@H](C(=O)Cn4cnn(-c5cccnc5)c4=O)CC[C@@H]32)C1` [Compound 2]: the microsomal CLint at 1 µM was 57 µL/min/mg.

Take `C[C@@]1(O)CC[C@H]2[C@H](CC[C@@H]3[C@@H]2CC[C@]2(C)[C@@H](C(=O)Cn4cnn(-c5ccccc5)c4=O)CC[C@@H]32)C1` [Compound 3]: the microsomal CLint at 1 µM is 12 µL/min/mg.

The next data set deals with T2, α4β3δ GABA receptors (α4β3δ-HEK-FlpIn-TRex stable cell strain) (Homo sapiens, UniProt P28472+P48169).
T2 construct: expressed in transfected cells
T2 sequence (P48169 36-554): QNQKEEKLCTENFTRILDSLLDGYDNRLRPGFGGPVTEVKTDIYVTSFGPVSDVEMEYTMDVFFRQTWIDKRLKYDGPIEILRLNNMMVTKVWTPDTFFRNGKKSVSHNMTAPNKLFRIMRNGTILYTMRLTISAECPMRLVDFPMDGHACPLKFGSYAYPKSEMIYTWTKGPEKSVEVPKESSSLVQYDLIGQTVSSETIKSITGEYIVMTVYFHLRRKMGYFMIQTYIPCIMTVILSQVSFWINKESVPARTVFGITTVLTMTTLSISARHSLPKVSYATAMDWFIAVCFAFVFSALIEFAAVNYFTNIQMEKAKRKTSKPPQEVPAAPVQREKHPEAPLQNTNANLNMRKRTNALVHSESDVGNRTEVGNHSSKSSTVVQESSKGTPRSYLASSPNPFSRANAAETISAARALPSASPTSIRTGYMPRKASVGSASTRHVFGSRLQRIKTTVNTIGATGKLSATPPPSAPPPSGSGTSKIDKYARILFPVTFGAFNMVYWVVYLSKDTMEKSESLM
T2 sequence (P28472 26-473): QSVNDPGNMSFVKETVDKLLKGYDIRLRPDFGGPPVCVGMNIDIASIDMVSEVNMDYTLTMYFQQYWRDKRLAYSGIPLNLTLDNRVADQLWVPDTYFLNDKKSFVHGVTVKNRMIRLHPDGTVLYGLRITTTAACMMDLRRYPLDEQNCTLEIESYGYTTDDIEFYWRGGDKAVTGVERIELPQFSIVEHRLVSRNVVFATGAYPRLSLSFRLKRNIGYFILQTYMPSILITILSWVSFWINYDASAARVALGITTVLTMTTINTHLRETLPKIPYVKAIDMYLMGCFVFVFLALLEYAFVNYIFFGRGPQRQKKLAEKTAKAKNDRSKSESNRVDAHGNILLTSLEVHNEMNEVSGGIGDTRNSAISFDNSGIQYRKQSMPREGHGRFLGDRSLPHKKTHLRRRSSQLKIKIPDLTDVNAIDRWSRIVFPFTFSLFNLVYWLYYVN
T2 sequence (O14764 25-452 partner): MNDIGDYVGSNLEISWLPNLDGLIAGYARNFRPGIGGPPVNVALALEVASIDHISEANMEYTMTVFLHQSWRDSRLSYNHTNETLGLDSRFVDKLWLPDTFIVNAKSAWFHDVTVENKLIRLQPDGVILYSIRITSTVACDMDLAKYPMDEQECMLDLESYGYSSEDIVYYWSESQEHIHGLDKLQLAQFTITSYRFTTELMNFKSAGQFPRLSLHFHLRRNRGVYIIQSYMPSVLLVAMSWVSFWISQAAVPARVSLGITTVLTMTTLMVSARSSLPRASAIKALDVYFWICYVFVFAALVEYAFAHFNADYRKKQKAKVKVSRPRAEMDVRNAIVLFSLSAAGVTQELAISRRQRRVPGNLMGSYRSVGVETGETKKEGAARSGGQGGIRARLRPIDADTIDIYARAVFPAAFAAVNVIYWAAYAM
In words: Whole-cell patch clamp, extrasynaptic functional activity (positive allosteric regulation of GABA-induced current). Format: cell-based. The note with it: patch clamp -60 mV, GABA at EC10-20, α4β3δ-HEK-FlpIn-TRex cells. The protocol:
as §1, §2, §3, §4
For `C[C@@]1(O)CC[C@H]2[C@H](CC[C@@H]3[C@@H]2CC[C@]2(C)[C@@H](C(=O)Cn4cnn(-c5cccc(F)c5)c4=O)CC[C@@H]32)C1` [Compound 1], the response was half-maximal at 0.01 µM (EC50) and the Emax was determined as 440%.

`C[C@@]1(O)CC[C@H]2[C@H](CC[C@@H]3[C@@H]2CC[C@]2(C)[C@@H](C(=O)Cn4cnn(-c5cccnc5)c4=O)CC[C@@H]32)C1` [Compound 2] gave an Emax of 391%.

`C[C@@]1(O)CC[C@H]2[C@H](CC[C@@H]3[C@@H]2CC[C@]2(C)[C@@H](C(=O)Cn4cnn(-c5ccccc5)c4=O)CC[C@@H]32)C1` [Compound 3] displayed an EC50 of 0.029 µM and an Emax of 490%.

Test system in the next data set: not listed separately
The data set is described as follows: In vitro liver microsomal stability assay, rat. Format: in vitro ADME. Particulars: Rat liver microsomes. Here is the method:
as §5, §6, §7, §8, §9, §10, §11, §12, §13, §14, §15
`C[C@@]1(O)CC[C@H]2[C@H](CC[C@@H]3[C@@H]2CC[C@]2(C)[C@@H](C(=O)Cn4cnn(-c5cccc(F)c5)c4=O)CC[C@@H]32)C1` [Compound 1] came in with a CLint scaled at 1 µM of 43.6 mL/min/kg and a half-life at 1 µM of 57.3 min.

The compound `C[C@@]1(O)CC[C@H]2[C@H](CC[C@@H]3[C@@H]2CC[C@]2(C)[C@@H](C(=O)Cn4cnn(-c5cccnc5)c4=O)CC[C@@H]32)C1` [Compound 2] came in with a CLint scaled at 1 µM of 187 mL/min/kg and a T1/2 of 11.3 min.

In turn, `C[C@@]1(O)CC[C@H]2[C@H](CC[C@@H]3[C@@H]2CC[C@]2(C)[C@@H](C(=O)Cn4cnn(-c5ccccc5)c4=O)CC[C@@H]32)C1` [Compound 3] displayed a CLint scaled at 1 µM of 94 mL/min/kg and a half-life at 1 µM of 26.5 min.

Still in this data set, the particulars now being: Rat liver microsomes 0.5 mg/mL, NADPH.
In the case of `C[C@@]1(O)CC[C@H]2[C@H](CC[C@@H]3[C@@H]2CC[C@]2(C)[C@@H](C(=O)Cn4cnn(-c5cccc(F)c5)c4=O)CC[C@@H]32)C1` [Compound 1], the “Remaining amount % at 60 min” value stood at 44.5%.

`C[C@@]1(O)CC[C@H]2[C@H](CC[C@@H]3[C@@H]2CC[C@]2(C)[C@@H](C(=O)Cn4cnn(-c5cccnc5)c4=O)CC[C@@H]32)C1` [Compound 2]: the “Remaining amount % at 60 min” value worked out at 11.25%.

Take `C[C@@]1(O)CC[C@H]2[C@H](CC[C@@H]3[C@@H]2CC[C@]2(C)[C@@H](C(=O)Cn4cnn(-c5ccccc5)c4=O)CC[C@@H]32)C1` [Compound 3]: the “Remaining amount % at 60 min” value is 51.77%.

Still in this data set, the particulars now being: Rat liver microsomes; read-out: CLint(mic).
With `C[C@@]1(O)CC[C@H]2[C@H](CC[C@@H]3[C@@H]2CC[C@]2(C)[C@@H](C(=O)Cn4cnn(-c5cccc(F)c5)c4=O)CC[C@@H]32)C1` [Compound 1], the microsomal CLint at 1 µM stood at 24.2 µL/min/mg.

Turning to `C[C@@]1(O)CC[C@H]2[C@H](CC[C@@H]3[C@@H]2CC[C@]2(C)[C@@H](C(=O)Cn4cnn(-c5cccnc5)c4=O)CC[C@@H]32)C1` [Compound 2], the microsomal CLint at 1 µM is 104 µL/min/mg.

Regarding `C[C@@]1(O)CC[C@H]2[C@H](CC[C@@H]3[C@@H]2CC[C@]2(C)[C@@H](C(=O)Cn4cnn(-c5ccccc5)c4=O)CC[C@@H]32)C1` [Compound 3], the microsomal CLint at 1 µM turned out to be 52 µL/min/mg.
